Assay results taken from US9345740B2, “IAP antagonists” (BRISTOL-MYERS SQUIBB COMPANY, priority 2012, dated 2016).

Tests used:
Type in all cases: binding
[1] = target: XIAP BIR2-3 (His-BIR2-3 (125-356, C202A/C213G, XIAP)) (Homo sapiens (Human), UniProt P98170, C202A/C213G)
[2] = target: XIAP BIR3 (His-BIR3 (241-356, XIAP)) (Homo sapiens (Human), UniProt P98170)
[3] = target: XIAP BIR2 (His-BIR2 (124-240/C202A/C213G)) (Homo sapiens (Human), UniProt P98170, C202A/C213G); assay: XIAP-BIR2/SMAC Peptide AlphaScreen Assay; conditions: footnote *: XIAP BIR2 alpha screen (printed in the BIR2-3 column)
Description: C. XIAP-BIR2/SMAC Peptide AlphaScreen Assay
Assays were performed in white, flat-bottom, 384-well ProxiPlates (Perkin Elmer). The final assay volume was 10 μL prepared from additions of His-BIR2 (124-240/C202A/C213G), Biotinylated SMAC peptide, and test compounds in assay buffer consisting of 25 mM Hepes, 100 mM NaCl, 0.1% BSA, and 5 mM CaCl2. The reaction was incubated at room temperature for 60 minutes. After 60 minutes, 2.5 μL of Alphascreen detection reagent (Perkin Elmer) was added to the reaction mixture and incubated at room temperature in the dark for 120 minutes. The Alphascreen signal generated by the reaction was detected on the Envision Plate Reader Inhibition data were calculated from an Alphascreen signal generated by the no protein control reactions for 100% inhibition and vehicle-only reactions for 0% inhibition. The final concentration of reagents in the assay was 50 nM His-BIR2 (124-240/C202A/C213G), 50 nM.
Biotinylated SMAC peptide, 4 μg/mL Alphascreen detection reagents, and 0.5% DMSO. Dose response curves were generated to determine the concentration required for inhibiting 50% of the activity (IC50). Compounds were dissolved at 10 mM in dimethylsulfoxide (DMSO) and evaluated at eleven concentrations. IC50 values were derived by non-linear regression analysis.

[4] = target: XIAP BIR3 (N-His-Tb-BIR3(241-356, XIAP)) (Homo sapiens (Human), UniProt P98170)
Chain of XIAP BIR3 (N-His-Tb-BIR3(241-356, XIAP)) (P98170 whole entry, looked up): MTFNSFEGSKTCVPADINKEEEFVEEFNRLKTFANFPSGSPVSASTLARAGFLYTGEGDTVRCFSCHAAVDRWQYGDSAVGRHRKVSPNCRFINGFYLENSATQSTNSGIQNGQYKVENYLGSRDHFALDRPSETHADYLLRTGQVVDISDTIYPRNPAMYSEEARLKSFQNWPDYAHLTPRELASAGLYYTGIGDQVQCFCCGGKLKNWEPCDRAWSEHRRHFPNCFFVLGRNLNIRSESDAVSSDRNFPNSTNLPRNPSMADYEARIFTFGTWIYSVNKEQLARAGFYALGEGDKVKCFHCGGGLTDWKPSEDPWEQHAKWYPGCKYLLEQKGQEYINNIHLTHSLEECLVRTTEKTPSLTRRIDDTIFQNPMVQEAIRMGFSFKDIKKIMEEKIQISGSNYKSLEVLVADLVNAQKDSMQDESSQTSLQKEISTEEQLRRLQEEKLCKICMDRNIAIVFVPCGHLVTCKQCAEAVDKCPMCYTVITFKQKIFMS

Chain of XIAP BIR2-3 (His-BIR2-3 (125-356, C202A/C213G, XIAP)) (P98170 whole entry C202A/C213G, looked up): as the sequence (P98170 whole entry, looked up) above, with C202A, C213G counted along it
Chain of XIAP BIR3 (His-BIR3 (241-356, XIAP)) (P98170 whole entry, looked up): as the sequence (P98170 whole entry, looked up) above
Chain of XIAP BIR2 (His-BIR2 (124-240/C202A/C213G)) (P98170 whole entry C202A/C213G, looked up): as the sequence (P98170 whole entry, looked up) above, with C202A, C213G counted along it

| SMILES | IC50 [1] | IC50 [2] | IC50 [3] | IC50 [4] |
| --- | --- | --- | --- | --- |
| CN[C@@H](C)C(=O)N[C@@H](Cc1ccc(C#CC(=O)N[C@H]2C[C@@H](C(=O)N[C@@H]3CCCc4ccccc43)N(C(=O)[C@@H](NC(=O)[C@H](C)NC)C(C)(C)C)C2)cc1)C(=O)N1C[Si](C)(C)C[C@H]1C(=O)N[C@@H]1CCCc2ccccc21 [Example 8, (R)-1-((S)-3-(4-(3-(((3S,5S)-1-((S)-3,3-Dimethyl-2-((S)-2-(methylamino)propanamido)butanoyl)-5-(((R)-1,2,3,4-tetrahydronaphthalen-1-yl)carbamoyl)pyrrolidin-3-yl)amino)-3-oxoprop-1-yn-1-yl)phenyl)-2-((S)-2-(methylamino)propanamido)propanoyl)-3,3-dimethyl-N—((R)-1,2,3,4-tetrahydronaphthalen-1-yl)-1,3-azasilolidine-5-carboxamide] | 4 nM | 3 nM |  |  |
| CN[C@@H](C)C(=O)N[C@H](C(=O)N1C[C@@H](NC(=O)c2ccc(CN(C(=O)[C@@H]3C[Si](C)(C)CN3C(=O)[C@@H](NC(=O)[C@H](C)NC)C(C)(C)C)[C@H](C)c3cccc(F)c3F)cc2)C[C@H]1C(=O)N[C@@H]1CCCc2ccccc21)C(C)(C)C [Example 12, (R)-N-((R)-1-(2,3-Difluorophenyl)ethyl)-1-((S)-3,3-dimethyl-2-((S)-2-(methylamino)propanamido)butanoyl)-N-(4-(((3S,5S)-1-((S)-3,3-dimethyl-2-((S)-2-(methylamino)propanamido)butanoyl)-5-(((R)-1,2,3,4-tetrahydronaphthalen-1-yl)carbamoyl)pyrrolidin-3-yl)carbamoyl)benzyl)-3,3-dimethyl-1,3-azasilolidine-5-carboxamide] |  |  | 590 nM | 170 nM |
| CN[C@@H](C)C(=O)NC(Cc1ccc(NC(=O)c2ccc(CO[C@H]3C[C@@H](C(=O)NC4CCCc5ccccc54)N(C(=O)[C@@H](NC(=O)[C@H](C)NC)C(C)(C)C)C3)cc2)cc1)C(=O)N1C[Si](C)(C)C[C@H]1C(=O)NC1CCCc2ccccc21 (stereo partly drawn) [Example 3, (R)-1-((S)-3-(4-(4-((((3S,5S)-1-((S)-3,3-Dimethyl-2-(S)-2-(methylamino)propanamido)butanoyl)-5-(((R)-1,2,3,4-tetrahydronaphthalen-1-yl)carbamoyl)pyrrolidin-3-yl)oxy)methyl)benzamido)phenyl)-(2-((S)-2-(methylamino)propanamido)propanoyl)-3,3-dimethyl-N—((R)-1,2,3,4-tetrahydronaphthalen-1-yl)-1,3-azasilolidine-5-carboxamide] | 5 nM | 14 nM |  |  |
| CN[C@@H](C)C(=O)N[C@@H](Cc1ccc(C#Cc2ccc(C(=O)N[C@H]3C[C@@H](C(=O)N[C@@H]4CCCc5ccccc54)N(C(=O)[C@@H](NC(=O)[C@H](C)NC)C(C)(C)C)C3)cc2)cc1)C(=O)N1C[Si](C)(C)C[C@H]1C(=O)N[C@@H]1CCCc2ccccc21 [Example 5, (R)-1-((S)-3-(4-((4-(((3S,5S)-1-((S)-3,3-Dimethyl-2-((S)-2-(methylamino)propanamido)butanoyl)-5-(((R)-1,2,3,4-tetrahydronaphthalen-1-yl)carbamoyl)pyrrolidin-3-yl)carbamoyl)phenyl)ethynyl)phenyl)-2-((S)-2-(methylamino)propanamido)propanoyl)-3,3-dimethyl-N—((R)-1,2,3,4-tetrahydronaphthalen-1-yl)-1,3-azasilolidine-5-carboxamide] | 341 nM | 103 nM |  |  |
| CN[C@@H](C)C(=O)NC(Cc1ccc(NC(=O)c2ccc(C(=O)N[C@H]3C[C@@H](C(=O)NC4CCCc5ccccc54)N(C(=O)[C@@H](NC(=O)[C@H](C)NC)C(C)(C)C)C3)cc2)cc1)C(=O)N1C[Si](C)(C)C[C@H]1C(=O)NC1CCCc2ccccc21 (stereo partly drawn) [Example 1] | 4 nM | 12 nM |  |  |
| CN[C@@H](C)C(=O)N[C@H](C(=O)N1C[C@@H](NC(=O)c2ccc(CN(C(=O)[C@@H]3C[Si](C)(C)CN3C(=O)[C@@H](NC(=O)[C@H](C)NC)C(C)(C)C)[C@H](C)c3ccccc3F)cc2)C[C@H]1C(=O)N[C@@H]1CCCc2ccccc21)C(C)(C)C [Example 9, (R)-1-((S)-3,3-Dimethyl-2-((S)-2-(methylamino)propanamido)butanoyl)-N-(4-(((3S,5S)-1-((S)-3,3-dimethyl-2-((S)-2-(methylamino)propanamido)butanoyl)-5-(((R)-1,2,3,4-tetrahydronaphthalen-1-yl)carbamoyl)pyrrolidin-3-yl)carbamoyl)benzyl)-N—((R)-1-(2-fluorophenyl)ethyl)-3,3-dimethyl-1,3-azasilolidine-5-carboxamide] | 9 nM | 52 nM |  |  |
| CN[C@@H](C)C(=O)N[C@@H](Cc1ccc(NC(=O)N[C@H]2C[C@@H](C(=O)N[C@@H]3CCCc4ccccc43)N(C(=O)[C@@H](NC(=O)[C@H](C)NC)C(C)(C)C)C2)cc1)C(=O)N1C[Si](C)(C)C[C@H]1C(=O)N[C@@H]1CCCc2ccccc21 [Example 2, (R)-1-((S)-3-(4-(3-((3S,5S)-1-((S)-3,3-Dimethyl-2-((S)-2-(methylamino)propanamido)butanoyl)-5-(((R)-1,2,3,4-tetrahydronaphthalen-1-yl)carbamoyl)pyrrolidin-3-yl)ureido)phenyl)-2-((S)-2-(methylamino)propanamido)propanoyl)-3,3-dimethyl-N—((R)-1,2,3,4-tetrahydronaphthalen-1-yl)-1,3-azasilolidine-5-carboxamide] | 6 nM | 16 nM |  |  |
| CN[C@@H](C)C(=O)N[C@@H](Cc1ccc(C(=O)N[C@H]2C[C@@H](C(=O)N[C@@H]3CCCc4ccccc43)N(C(=O)[C@@H](NC(=O)[C@H](C)NC)C(C)(C)C)C2)cc1)C(=O)N1C[Si](C)(C)C[C@H]1C(=O)N[C@@H]1CCCc2ccccc21 [Example 10, (R)-1-((S)-3-(4-(((3S,5S)-1-((S)-3,3-dimethyl-2-((S)-2-(methylamino)propanamido)butanoyl)-5-(((R)-1,2,3,4-tetrahydronaphthalen-1-yl)carbamoyl)pyrrolidin-3-yl)carbamoyl)phenyl)-2-((S)-2-(methylamino)propanamido)propanoyl)-3,3-dimethyl-N-((R)-1,2,3,4-tetrahydronaphthalen-1-yl)-1,3-azasilolidine-5-carboxamide] | 5 nM | 8 nM |  |  |
| CC[C@H](NC)C(=O)N[C@@H](Cc1ccc(NC(=O)c2ccc(C(=O)N[C@H]3C[C@@H](C(=O)N[C@@H]4CCCc5ccccc54)N(C(=O)[C@@H](NC(=O)[C@H](C)NC)C(C)(C)C)C3)cc2)cc1)C(=O)N1C[Si](C)(C)C[C@H]1C(=O)N[C@@H]1CCCc2ccccc21 [Example 11, N1-((3S,5S)-1-((S)-3,3-dimethyl-2-((S)-2-(methylamino)propanamido)butanoyl)-5-(((R)-1,2,3,4-tetrahydronaphthalen-1-yl)carbamoyl)pyrrolidin-3-yl)-N4-(4-((S)-3-((R)-3,3-dimethyl-5-(((R)-1,2,3,4-tetrahydronaphthalen-1-yl)carbamoyl)-1,3-azasilolidin-1-yl)-2-((S)-2-(methylamino)butanamido)-3-oxopropyl)phenyl)terephthalamide] | 6 nM | 30 nM |  |  |
| CN[C@@H](C)C(=O)NC(Cc1ccc(C(=O)Nc2ccc(C(=O)N[C@H]3C[C@@H](C(=O)NC4CCCc5ccccc54)N(C(=O)[C@@H](NC(=O)[C@H](C)NC)C(C)(C)C)C3)cc2)cc1)C(=O)N1C[Si](C)(C)C[C@H]1C(=O)NC1CCCc2ccccc21 (stereo partly drawn) [Example 4] | 4 nM | 14 nM |  |  |
| CN[C@@H](C)C(=O)NC(Cc1ccc(-c2ccc(C(=O)NC3C[C@@H](C(=O)NC4CCCc5ccccc54)N(C(=O)[C@@H](NC(=O)[C@H](C)NC)C(C)(C)C)C3)cc2)cc1)C(=O)N1C[Si](C)(C)C[C@H]1C(=O)NC1CCCc2ccccc21 (stereo partly drawn) [Example 7] | 307 nM | 93 nM |  |  |
| CN[C@@H](C)C(=O)N[C@@H](Cc1ccc(CCc2ccc(C(=O)N[C@H]3C[C@@H](C(=O)N[C@@H]4CCCc5ccccc54)N(C(=O)[C@@H](NC(=O)[C@H](C)NC)C(C)(C)C)C3)cc2)cc1)C(=O)N1C[Si](C)(C)C[C@H]1C(=O)N[C@@H]1CCCc2ccccc21 [Example 6, (R)-1-((S)-3-(4-(4-(((3S,5S)-1-((S)-3,3-Dimethyl-2-((S)-2-(methylamino)propanamido)butanoyl)-5-(((R)-1,2,3,4-tetrahydronaphthalen-1-yl)carbamoyl)pyrrolidin-3-yl)carbamoyl)phenethyl)phenyl)-2-((S)-2-(methylamino)propanamido)propanoyl)-3,3-dimethyl-N—((R)-1,2,3,4-tetrahydronaphthalen-1-yl)-1,3-azasilolidine-5-carboxamide] | 205 nM | 84 nM |  |  |
